Assays:
[1] = target: T1, Glyceraldehyde-3-phosphate dehydrogenase (Homo sapiens, UniProt P04406); experiment: Binding affinity to human recombinant GAPDH assessed as change in gibbs free energy at 310 K incubated for 30 mins by fluorescence quenching assay
Target sequence in this assay (P04406 2-335 limits assumed): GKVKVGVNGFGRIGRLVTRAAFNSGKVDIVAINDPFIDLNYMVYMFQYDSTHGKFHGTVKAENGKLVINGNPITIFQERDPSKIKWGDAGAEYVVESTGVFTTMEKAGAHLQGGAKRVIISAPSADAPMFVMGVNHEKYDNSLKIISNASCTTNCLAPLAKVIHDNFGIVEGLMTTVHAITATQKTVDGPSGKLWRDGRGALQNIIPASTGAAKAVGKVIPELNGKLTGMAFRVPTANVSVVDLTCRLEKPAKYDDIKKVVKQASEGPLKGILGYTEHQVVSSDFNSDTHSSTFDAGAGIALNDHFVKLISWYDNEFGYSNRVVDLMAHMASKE

[2] = target: T1, Glyceraldehyde-3-phosphate dehydrogenase; experiment: Binding affinity to human recombinant GAPDH assessed as change in gibbs free energy at 298 K incubated for 30 mins by fluorescence quenching assay
Target sequence in this assay (P04406 2-335 limits assumed): as above

[3] = target: T1, Glyceraldehyde-3-phosphate dehydrogenase; experiment: Binding affinity to human recombinant GAPDH incubated for 30 mins by fluorescence quenching assay; settings: dose <= 50.0 µM
Target sequence in this assay (P04406 2-335 limits assumed): as above

[4] = target: T1, Glyceraldehyde-3-phosphate dehydrogenase; experiment: Binding affinity to human recombinant GAPDH assessed as Stem-Volmer quenching constant at 310 K incubated for 30 mins by fluorescence quenching assay
Target sequence in this assay (P04406 2-335 limits assumed): as above

[5] = target: T1, Glyceraldehyde-3-phosphate dehydrogenase; experiment: Binding affinity to human recombinant GAPDH assessed as change in entropy at 298 K incubated for 30 mins by fluorescence quenching assay
Target sequence in this assay (P04406 2-335 limits assumed): as above

[6] = target: T1, Glyceraldehyde-3-phosphate dehydrogenase; experiment: Binding affinity to human recombinant GAPDH assessed as change in enthalpy at 298 K incubated for 30 mins by fluorescence quenching assay
Target sequence in this assay (P04406 2-335 limits assumed): as above

[7] = target: T1, Glyceraldehyde-3-phosphate dehydrogenase; experiment: Binding affinity to human recombinant GAPDH assessed as equilibrium binding constant at 298 K incubated for 30 mins by fluorescence quenching assay
[8] = target: T1, Glyceraldehyde-3-phosphate dehydrogenase; experiment: Binding affinity to human recombinant GAPDH assessed as Stem-Volmer quenching constant at 298 K incubated for 30 mins by fluorescence quenching assay
[9] = target: T1, Glyceraldehyde-3-phosphate dehydrogenase; experiment: Binding affinity to human recombinant GAPDH assessed as equilibrium binding constant at 310 K incubated for 30 mins by fluorescence quenching assay
[10] = target: T1, Glyceraldehyde-3-phosphate dehydrogenase; experiment: Inhibition of human recombinant GADPH incubated for 30 mins by absorbance based assay
Target sequence in this assay (P04406 whole entry): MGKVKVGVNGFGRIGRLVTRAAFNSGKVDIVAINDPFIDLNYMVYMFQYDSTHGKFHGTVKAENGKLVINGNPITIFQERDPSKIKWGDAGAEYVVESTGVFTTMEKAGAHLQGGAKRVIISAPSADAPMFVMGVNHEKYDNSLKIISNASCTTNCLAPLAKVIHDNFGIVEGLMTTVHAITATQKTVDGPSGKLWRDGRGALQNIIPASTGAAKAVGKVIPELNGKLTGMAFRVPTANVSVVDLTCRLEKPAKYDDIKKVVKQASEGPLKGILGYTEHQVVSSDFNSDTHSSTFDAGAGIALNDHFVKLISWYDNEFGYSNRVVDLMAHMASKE

SMILES | deltaG [1] | deltaG [2] | Activity [3] | KSV [4] | deltaS [5] | deltaH [6] | Kb [7] | KSV [8] | Kb [9] | IC50 [10]
O=c1cc(-c2ccccc2)oc2cc(O)c(O)c(O)c12 [BAICALEIN] | -3.59 kcal/mol | -3.59 kcal/mol | Dose-Dependent Effect | 26.3 µM⁻¹ | 2.38 J/mol/K | -3.42 kcal/mol | 427 M⁻¹ | 26.7 µM⁻¹ | 341 M⁻¹ | 43.9 µM
O=C(O)[C@H]1O[C@@H](Oc2cc3oc(-c4ccccc4)cc(=O)c3c(O)c2O)[C@H](O)[C@@H](O)[C@@H]1O [BAICALIN] | -3.97 kcal/mol | -4.58 kcal/mol | Dose-Dependent Effect | 17.4 µM⁻¹ | -210 J/mol/K | -19.5 kcal/mol | 2270 M⁻¹ | 27.3 µM⁻¹ | 634 M⁻¹ | 40.9 µM
